Reference: patent US20240293551A1, “USE OF ST-TYPE LIPID COMPOUNDS IN PREPARATION OF NUCLEIC ACID DELIVERY REAGENT AND RELATED PRODUCT” (INSTITUTE OF BASIC MEDICAL SCIENCES CHINESE ACADEMY OF …, priority 2021, published 2024)

Test system: PGY-sRNA-26
Experiment: In vivo delivery study of lipid-nucleic acid mixture (oral gavage, RT-qPCR of PGY-sRNA-26 in tissues)
Set-up: species or system mouse
Details: C57BL/6 mice, gavage, 100 μg lipid: 10 nmol PGY-sRNA-26, 12 hours; for oral delivery of single-stranded sRNA nucleic acids into mouse intestinal tissue: intestine
How it was run: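 C57BL/6 male mice (~6 weeks, 20-24 g), fasted 12 h, were gavaged with 10 nmol 3′-methylated PGY-sRNA-26 mixed with 100 μg lipid (heated 90° C. 15 min), versus saline or free sRNA (n=4 each). After 12 h, blood and tissues were Trizol-extracted; sRNA quantified by stem-loop RT-qPCR relative to U6.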

C[C@]12C=CC(=O)C=C1CC[C@@H]1[C@@H]2C(=O)C[C@@]2(C)[C@H]1CC[C@]2(O)C(=O)CO [Lipid 564]
can effectively orally deliver: oral delivery of single-stranded sRNA nucleic acids into mouse blood | oral delivery of single-stranded sRNA nucleic acids into mouse brain tissue | oral delivery of single-stranded sRNA nucleic acids into mouse femur | oral delivery of single-stranded sRNA nucleic acids into mouse heart tissue | oral delivery of single-stranded sRNA nucleic acids into mouse intestinal tissue | oral delivery of single-stranded sRNA nucleic acids into mouse kidney tissue | oral delivery of single-stranded sRNA nucleic acids into mouse liver tissue | oral delivery of single-stranded sRNA nucleic acids into mouse lung tissue (lung) | oral delivery of single-stranded sRNA nucleic acids into mouse spleen tissue (spleen) | oral delivery of single-stranded sRNA nucleic acids into mouse stomach tissue

CCCCCCCCCCCCCCCCC(=O)O[C@H]1CC[C@@]2(C)C(=CC[C@H]3[C@@H]4CC[C@H]([C@H](C)CCCC(C)C)[C@@]4(C)CC[C@@H]32)C1 [Lipid 565]
can effectively orally deliver: oral delivery of single-stranded sRNA nucleic acids into mouse blood | oral delivery of single-stranded sRNA nucleic acids into mouse brain tissue | oral delivery of single-stranded sRNA nucleic acids into mouse femur | oral delivery of single-stranded sRNA nucleic acids into mouse heart tissue | oral delivery of single-stranded sRNA nucleic acids into mouse intestinal tissue | oral delivery of single-stranded sRNA nucleic acids into mouse kidney tissue | oral delivery of single-stranded sRNA nucleic acids into mouse liver tissue | oral delivery of single-stranded sRNA nucleic acids into mouse stomach tissue

C[C@]12CCC(=O)C=C1CC[C@@H]1[C@@H]2[C@@H](O)C[C@@]2(C)[C@H]1CC[C@]2(O)C(=O)CO [Lipid 566]
can effectively orally deliver: oral delivery of single-stranded sRNA nucleic acids into mouse blood | oral delivery of single-stranded sRNA nucleic acids into mouse femur | oral delivery of single-stranded sRNA nucleic acids into mouse heart tissue | oral delivery of single-stranded sRNA nucleic acids into mouse intestinal tissue | oral delivery of single-stranded sRNA nucleic acids into mouse kidney tissue | oral delivery of single-stranded sRNA nucleic acids into mouse liver tissue | oral delivery of single-stranded sRNA nucleic acids into mouse stomach tissue
